Measurements: patent US20180055844A1 (Celgene Corporation, priority 2011, published 2018)
“And” between values parts separate entries of the source, which are not always exact repeats. Identical values can stand only once. Like-named read-outs stand apart in the source and are kept apart here.

Tests used:
[1] = Proliferation assays with Rituxan (Chou-Talalay method); type: cell-based
[2] = system: NFκB p65 and p50; experiment: NFκB activity in DLBCL cells (Active Motif transcription factor assay); type: cell-based; conditions: 0.1 μM, 1 μM and 10 μM, 2 days
Source text: NF-κB activity was examined with Active Motif transcription factor assay using nuclear extracts from cells following treatment.

[3] = Stability in human plasma; type: in vitro ADME; conditions: read-out: t1/2 in human plasma
[4] = system: SF268; experiment: Solid tumor cell colony formation; type: cell-based; conditions: Homo sapiens, SF-268
[5] = system: lipopolysaccharide-stimulated human peripheral blood mononuclear cells (hPBMCs); experiment: PBMC cytokine profiling; type: cell-based; conditions: for IC50: LPS-stimulated hPBMC
[6] = system: HCT116; experiment: Solid tumor cell colony formation; type: cell-based; conditions: Homo sapiens, HCT-116
[7] = Oral pharmacokinetics; type: in vivo; conditions: Cyno monkey
[8] = system: MM cell lines U266, 100-1 and 1K-2; experiment: Proliferation of CRBN-sensitive MM cell lines; type: cell-based
[9] = Oral administration for 7 consecutive days in rat; set-up: species or system male CD-IGS rat; conditions: in vivo
Description: The NOAEL was determined to be 1000 mg/kg/day.

[10] = system: HepG2; experiment: Invasion of solid tumor cells; type: cell-based; conditions: Homo sapiens; HepG2 (VEGF), hepatocellular
[11] = system: DLBCL cell lines; experiment: In vitro DLBCL cell thymidine incorporation assay (panel); type: cell-based; conditions: 5 days, 3H-thymidine incorporation
Source text: Results of 3 independent experiments are shown (mean±SD) in FIG. 2. […] ABC-subtype cells appear more sensitive to the antiproliferative effect than other subtype cells including GCB-DLBCL and PMBL cells.

[12] = system: DoHH2 xenograft; experiment: DoHH2 xenograft model; type: in vivo; conditions: for tumor growth inhibition: day 12
[13] = system: MCF-7; experiment: Solid tumor cell colony formation; type: cell-based; conditions: Homo sapiens, MCF7
[14] = system: OVCAR-3; experiment: Solid tumor cell colony formation; type: cell-based; conditions: Homo sapiens
[15] = system: PC-3; experiment: Solid tumor cell colony formation; type: cell-based; conditions: Homo sapiens
[16] = system: MDA-MB-453; experiment: Solid tumor cell colony formation; type: cell-based; conditions: Homo sapiens
[17] = system: DoHH-2 cells; experiment: Cytotoxicity assay (3 day ATP production); type: cell-based; conditions: Homo sapiens, 72 hours, read-out: DoHH2 (FL) GIC50
Description: (§1) Cells line Farage, DOHH2 and Rec-1 were obtained from American Type Culture Collection (Manassas, Va., USA) Cytotoxicity assays were measured in 3 day ATP production assays as follows: The cells were plated in black/clear-bottom 96-well TC plates (BD Falcon, Cat #353948) at 3000 cells/75 μL (for DoHH-2 and Farage cells) or 6000 cells/75 μL (Rec-1 cells) media per well. […] Plates were then sealed with breathable sealing films (ISC BioExpress, Cat # T-2421-50) and placed in a 37° C., 5% CO2 humidified incubator for 72 hours. In addition, cells were seeded in a separate plate in the same manner as above, 25 μL medium in 1% DMSO was added to each well. This plate was immediately tested in the CellTiter-Glo Luminescent Cell Viability Assay (Promega, Cat # G7572) as 0 time point and the results were used to calculate GIC50 in the Farage and DOHH-2 cell experiments After 72 hours of incubation, 100 μL of CellTiter-Glo reagent were added to each well and incubated at room temperature with gentle shaking for 30 minutes. The plates were then analyzed for luminescence in a TopCount NXT Reader (Packard). Each well was counted for one second. Values for duplicate wells were averaged and then compared to the zero time point DMSO control (0% inhibition) to calculate the percentage inhibition of cell growth. Mean DOHH-2 GIC50 values and Farage GIC50 values were calculated from three experiments. Rec-1 IC50 values were calculated from two experiments.

[18] = system: Farage cells; experiment: Cytotoxicity assay (3 day ATP production); type: cell-based; conditions: 72 hours, read-out: Farage (GCB-DLBCL) GIC50
Description: as §1

[19] = system: Rec-1 cells; experiment: Cytotoxicity assay (3 day ATP production); type: cell-based; conditions: Homo sapiens, Rec1; 72 hours; read-out: REC1 (MCL) IC50
Description: as §1

[20] = system: NCI-H929 MM xenograft; experiment: NCI-H929 MM xenograft model; type: in vivo; conditions: day 19
[21] = system: B cell; experiment: B cell proliferation; type: cell-based
[22] = system: SF-539; experiment: Invasion of solid tumor cells; type: cell-based; conditions: Homo sapiens; SF-539 (PDGF), glioblastoma
[23] = system: U87; experiment: Solid tumor cell colony formation; type: cell-based; conditions: Homo sapiens, U-87 MG
[24] = system: human umbilical vascular endothelial cell (HUVEC); experiment: HUVEC invasion; type: cell-based
[25] = cynomolgus monkey, plasma, 3 mg/kg, 3 mpk po

Cc1nc2cccc(N)c2c(=O)n1C1CCC(=O)NC1=O (stereo not drawn) [compound of Formula I, 3-(5-amino-2-methyl-4-oxo-4H-quinazolin-3-yl)-piperidine-2,6-dione]
interaction with Rituxan in proliferation assays [1]: synergistically | NFκB p65 and p50 activity [2]: significantly inhibits | half-life [3]: 3.83 h | inhibition at 10 µM [4]: 0.6% | activity at 0.1 µM ([5]; read-out: IL-10 production, mean percent of control): 480% | activity at 0.1 µM ([5]; read-out: MCP-1 production, mean percent of control): 236% | activity at 0.1 µM ([5]; read-out: RANTES production, mean percent of control): 131% | IC50 ([5]; read-out: IL-8 production IC50): > 10000 nM | IC50 ([5]; read-out: MIP-1α production IC50): 300 nM | IC50 ([5]; read-out: MIP-1β production IC50): > 10000 nM | inhibition at 10 µM [6]: 13% | F ([7]; 3 mpk po): 32% | AUC [7, 25]: 12000 ng·h/mL and 43 µM·h | Cmax [7, 25]: 3300 ng/mL and 11 µM | half-life ([7]; cynomolgus monkey, plasma, oral, 3 mpk): 5.8 h | clearance ([7]; cynomolgus monkey, plasma, read-out: CLp): 1.2 mL/min/kg | proliferation of CRBN-sensitive MM cell lines U266, 100-1 and 1K-2 [8]: inhibit the proliferation | NOAEL at 7 days ([9]; oral, 7 consecutive days, male CD-IGS rat): 1000 mg/kg/day | exposure versus dose ([9]; rat): near dose proportional exposure increases | IC50 [10]: < 1 nM | concentration starting at which proliferation of several lines of DLBCL cells was significantly (p<0.05) inhibited [11]: 0.1 to 1 µM | tumor growth inhibition ([12]; 3 mpk in combination with Rituxan (1 mg/kg)): 45% | tumor growth inhibition ([12]; 30 mpk in combination with Rituxan (1 mg/kg)): 55% | delay of time to tumor endpoint ([12]; combination with Rituxan, 30 mg/kg dose): 63% | blood vessels counts in tumor ([12]; in vivo): significantly inhibited | tumor growth ([12]; single agent): inhibited tumor growth | inhibition at 10 µM [13]: 1.4% | inhibition at 10 µM [14]: 18% | inhibition at 10 µM [15]: 14.8% | inhibition at 10 µM [16]: -7% | IC50 [17]: 610 nM | IC50 [18]: 700 nM | IC50 [19]: 470 nM | tumor growth inhibition ([20]; 0.3 mg/kg): 59% | tumor growth inhibition ([20]; 3 mg/kg): 73% | tumor growth inhibition ([20]; 30 mg/kg): 93% | EC50 [21]: 15 nM | IC50 [22]: 25 nM | inhibition at 10 µM [23]: 2% | IC50 ([24]; read-out: IC50 for inhibition of HGF-induced HUVEC invasion): 110 nM | IC50 ([24]; read-out: IC50 for inhibition of VEGF-induced HUVEC invasion): 0.29 nM | IC50 ([24]; read-out: IC50 for inhibition of bFGF-induced HUVEC invasion): 5.5 nM
